The values below come from patent US7996068B2, “Surgical method and apparatus for identification of fluorescence” (The Board of Trustees of the Leland Stanford Junior …, priority 2007, dated 2011).

The conditions of data set [1]: human, in vivo. From the text:
In some embodiments, intravenous fluorescein can be used as the fluorescent agent.

For data set [2] the following is noted: human, cited from earlier work.

Each structure is given as a SMILES string.

Regarding `O=C1OC2(c3ccc(O)cc3Oc3cc(O)ccc32)c2ccccc21` [fluorescein], in data set [1], the “concentration of fluorescein in urine” value is reported as “about 0.1 mg/ml”, the “concentration of fluorescein in urine relative to concentration in the blood” value is “about 5 ×” and the “rate of drug excreted into the ureters” value is on record as 0.05 mg/min. The “fraction of dose metabolized” value in data set [2] (14 mg/kg dose, IV, within 1 hour of administration) is on record as 80%. In addition, the “time the urine remains slightly fluorescent post dose” value in data set [2] (post dose) was 24 to 36 h. Besides, in data set [2], the volume of distribution is reported as 0.5 L/kg.
